Where a name gives a salt, the structure may show the parent alone.
Tests used:
[1] = biological target: T1, PDGFR Alpha Receptor Kinase (PDGFRalpha) (Homo sapiens, UniProt P16234); assay: Determination of PDGFR alpha receptor kinase (PDGFRalpha) inhibitory activity (alpha screen); assay type: biochemical; conditions: PDGFRalpha intracellular domain protein, 25 μM ATP buffer; read-out: IC50 value (PDGFRalpha kinase inhibition)
T1 construct: PDGFRalpha intracellular domain protein (UPSTATE); purchased UPSTATE
Method: The test compound dissolved in dimethyl sulfoxide (DMSO) was diluted with a buffer (50 mM Tris-HCl, pH 7.5, 5 mM MgCl2, 5 mM MnCl2, 2 mM dithiothreitol, 0.01% Tween-20).
Acceptor beads: PerkinElmer for alpha screen assay) was added to quench the reaction. The reaction solution was stood at 25° C. for 16 hr, and the count was measured using a plate reader·Fusion™ (manufactured by PerkinElmer). The kinase inhibitory rate (%) of the test compound was calculated by the following formula.
(§1) Inhibitory rate(%)=(1−(count of test compound−blank)÷(control−blank))×100
(§2) wherein the count of the solution reacted without addition of the compound is “control” and the count of the solution without addition of the compound and ATP is “blank”.

[2] = biological target: T2, TIE2 Receptor Kinase (TIE2) (Homo sapiens, UniProt Q02763); assay: Determination of TIE2 receptor kinase (TIE2) inhibitory activity (alpha screen); assay type: biochemical; conditions: TIE2 intracellular domain protein, 5 μM ATP buffer; read-out: IC50 value (TIE2 kinase inhibition)
T2 construct: TIE2 intracellular domain protein (UPSTATE); purchased UPSTATE
Method: The test compound dissolved in dimethyl sulfoxide (DMSO) was diluted with a buffer (50 mM Tris-HCl, pH 7.5, 5 mM MgCl2, 5 mM MnCl2, 2 mM dithiothreitol, 0.01% Tween-20). A buffer (10 μl) containing 50 ng/ml TIE2 intracellular domain protein (UPSTATE) and 250 ng/ml biotin-labeled polypeptide biotinyl-poly-Glu:Tyr (4:1) (CIS Bio International) was added to the compound solution (5 μl). At 5 min after mixing a kinase enzyme, the compound and a biotin-labeled polypeptide, a buffer (10 μl) containing 5 μM ATP was added to the obtained mixture, the mixture was allowed to react at 25° C. for 10 min. Then, 25 μl of a stop solution (100 mM EDTA·2 sodium salt, 62.5 mM HEPES buffer (pH 7.4), 250 mM NaCl, 0.1% bovine serum albumin, 10 μg/ml Streptavidin Donor beads: PerkinElmer for alpha screen assay, 10 μg/ml Anti-phosphotyrosine (P-Tyr-66) Acceptor beads: PerkinElmer for alpha screen assay) was added to quench the reaction. The reaction solution was stood at 25° C. for 16 hr, and the count was measured using a plate reader·Fusion™ (manufactured by PerkinElmer). The kinase inhibitory rate (%) of the test compound was calculated by the following formula.
as §1, §2
Prism (Graphpad Software) according to the nonlinear-regression sigmoidal dose-response (variable slope) analysis method.

[3] = system: Human umbilical vein endothelial cells (HUVEC); assay: Vascular endothelial cell growth inhibitory test; assay type: cell-based; conditions: VEGF 120 ng/mL, culture 5 days, XTT reagent
Method: Human umbilical vein endothelial cells (HUVEC, purchased from KURABO) were cultured in a gas incubator (37° C., CO2 5%) in a vascular endothelial cell medium (Invitrogen) containing 5% fetal calf serum and a basic fibroblast growth factor (2.5 ng/mL). To be specific, HUVEC suspended in the aforementioned vascular endothelial cell medium (Invitrogen) containing 5% fetal calf serum were seeded into a 96 well flat-bottom plate (50 μL, 3000 cells each well). After culturing overnight, various concentrations of test substance and the final concentration (120 ng/mL) of vascular endothelial growth factor (VEGF) were dissolved in a vascular endothelial cell medium (Invitrogen) containing 5% fetal calf serum and added to each well (50 μL). After culturing for 5 days, an XTT reagent (Wako Pure Chemical Industries, Ltd.) was added to each well (10 μL), and reacted in a gas incubator (37° C., CO2 5%) for 2-3 hr. The absorbance at 450 nm was measured by a microtiter plate reader, and the cell growth inhibitory activity was determined.

[4] = biological target: T3, VEGF Receptor 2 Kinase (VEGFR2) (Homo sapiens, UniProt P35968); assay: Determination of VEGF receptor 2 kinase (VEGFR2) inhibitory activity (alpha screen); assay type: biochemical; conditions: VEGFR2 intracellular domain protein, 25 μM ATP buffer, read-out: inhibitory rate (kinase inhibitory rate of VEGFR2)
T3 construct: made in house; host or cells: SF-21 insect cells, recombinant baculovirus BAC-VEGFR2 (pFASTBAC1)
Method: For cloning of human VEGF receptor 2 (hereinafter to be abbreviated as VEGFR2) gene, PCR was performed using cDNA Libraries Human Placenta (Clontech) as a template. The primer used for PCR was prepared by, based on the information of the base sequence (Genbank Accession AF035121) of VEGFR2 gene, adding a base sequence encoding the flag peptide and a restriction enzyme recognition sequence to the base sequence (2671-4374 of Genbank Accession AF035121) encoding the VEGFR2 intracellular domain, so that a flag tag would be added to the N terminal of the protein. The primer base sequence is shown in the following.
PCR reaction was carried out using a KOD-plus kit (TOYOBO). The obtained PCR product was electrophoresed on an agarose gel (1%), and a DNA fragment amplified by PCR was recovered from the gel and digested with restriction enzymes Sal I and Sph I. The DNA after the restriction enzyme treatment was electrophoresed on an agarose gel (1%), and the obtained DNA fragment was recovered and ligated to the plasmid pFASTBAC1 (Invitrogen) digested with restriction enzymes Sal I and Sph I to give an expression plasmid pFB-VEGFR2. The base sequence of the inserted fragment was confirmed to have matched with the base sequence (2671-4374 of Genbank Accession AF035121) of the VEGFR2 intracellular domain. Furthermore, virus stock BAC-VEGFR2 of the recombinant Baculovirus was prepared using BAC-TO-BAC Baculovirus Expression System (Invitrogen).
SF-21 cells were inoculated into 1 L of Sf-900IISFM medium (Invitrogen) containing 10% fetal calf serum (trace), 50 mg/L Gentamicin (Invitrogen) and 0.1% Pluronic F-68 (Invitrogen) at 1×10^6 cells/ml, and shake culture was performed using a 2 L Erlenmeyer flask at 27° C., 100 rpm. After 24 hr of culture, recombinant Baculovirus BAC-VEGFR2 (13.4 mL) was added, and the culture was continued for 3 days. The culture medium was centrifuged at 2,000 rpm for 5 min to give virus-infected cells. The infected cells were washed with phosphate buffered saline (Invitrogen), centrifuged under the same conditions, and preserved at −80° C. The cryopreserved cells were thawed in ice, suspended in 30 mL of buffer A (Tris buffer, pH 7.4, containing 20% glycerol and 0.15M NaCl (50 mM)) supplemented with Complete Protease Inhibitor (Boehringer), and disrupted three times using a polytron homogenizer (Kinematica) at 20,000 rpm, 30 sec. The disrupt was clarified by centrifugation at 40,000 rpm, 30 min and filtered through a 0.45 μm filter. The filtrate was passed through a column packed with Anti-FLAG M2 Affinity Gel (Sigma Ltd., 4 mL) at a flow rate of about 0.5 mL/min. The column was washed with buffer A and eluted with buffer A containing 100 μg/mL FLAG peptide. The eluate was concentrated by Vivaspin 20 (Viva Science) having a fraction molecular weight of 30K. The concentrate was applied to NAP™ 25 column (Amersham Biosciences) equilibrated with buffer A for buffer exchange. The fractions containing the VEGFR2 intracellular domain protein were collected, glycerol was added to the final concentration of 50% and the fractions cryopreserved at ˜80° C.
The test compound dissolved in dimethyl sulfoxide (DMSO) was diluted with a buffer (50 mM Tris-HCl, pH 7.5, 5 mM MgCl2, 5 mM MnCl2, 2 mM dithiothreitol, 0.01% Tween-20). A buffer (10 μl) containing 50 ng/ml VEGFR2 intracellular domain protein and 250 ng/ml biotin-labeled polypeptide biotinyl-poly-Glu:Tyr (4:1) (CIS Bio International) was added to the compound solution (5 μl). A buffer (10 μl) containing 25 μM ATP was added to the obtained mixture, the mixture was allowed to react at 25° C. for 5 min. Then, 25 μl of a stop solution (100 mM EDTA·2 sodium salt, 62.5 mM HEPES buffer (pH 7.4), 250 mM NaCl, 0.1% bovine serum albumin, 10 μg/ml Streptavidin Donor beads: PerkinElmer for alpha screen assay, 10 μg/ml Anti-phosphotyrosine (P-Tyr-100) Acceptor beads: PerkinElmer for alpha screen assay) was added to quench the reaction. […]

T3 sequence (P35968 786-1356 limits assumed): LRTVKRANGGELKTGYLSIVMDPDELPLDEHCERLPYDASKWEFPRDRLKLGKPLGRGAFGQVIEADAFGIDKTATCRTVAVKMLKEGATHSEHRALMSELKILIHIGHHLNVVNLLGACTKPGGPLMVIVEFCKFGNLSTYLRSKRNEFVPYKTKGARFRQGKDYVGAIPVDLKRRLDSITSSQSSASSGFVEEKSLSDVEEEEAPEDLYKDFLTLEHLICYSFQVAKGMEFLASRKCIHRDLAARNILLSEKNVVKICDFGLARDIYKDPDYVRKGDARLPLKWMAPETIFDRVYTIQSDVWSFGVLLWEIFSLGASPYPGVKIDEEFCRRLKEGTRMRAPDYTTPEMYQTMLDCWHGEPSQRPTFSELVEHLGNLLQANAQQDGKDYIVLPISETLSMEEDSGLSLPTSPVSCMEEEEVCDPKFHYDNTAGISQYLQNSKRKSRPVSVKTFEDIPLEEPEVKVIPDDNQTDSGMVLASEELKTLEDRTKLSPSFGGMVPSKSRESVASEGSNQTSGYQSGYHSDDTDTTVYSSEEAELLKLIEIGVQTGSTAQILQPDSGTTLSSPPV
T2 sequence (Q02763 770-1124 limits assumed): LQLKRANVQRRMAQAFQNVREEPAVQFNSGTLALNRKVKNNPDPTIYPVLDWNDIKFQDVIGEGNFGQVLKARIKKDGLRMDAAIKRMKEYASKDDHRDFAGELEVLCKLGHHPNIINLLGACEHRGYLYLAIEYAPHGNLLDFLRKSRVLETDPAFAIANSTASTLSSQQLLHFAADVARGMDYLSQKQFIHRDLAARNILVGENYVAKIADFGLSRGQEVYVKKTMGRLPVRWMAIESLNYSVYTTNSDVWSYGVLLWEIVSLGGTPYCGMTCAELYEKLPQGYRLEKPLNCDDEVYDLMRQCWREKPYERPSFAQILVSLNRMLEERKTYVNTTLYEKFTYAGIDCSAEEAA
T1 sequence (P16234 550-1089 limits assumed): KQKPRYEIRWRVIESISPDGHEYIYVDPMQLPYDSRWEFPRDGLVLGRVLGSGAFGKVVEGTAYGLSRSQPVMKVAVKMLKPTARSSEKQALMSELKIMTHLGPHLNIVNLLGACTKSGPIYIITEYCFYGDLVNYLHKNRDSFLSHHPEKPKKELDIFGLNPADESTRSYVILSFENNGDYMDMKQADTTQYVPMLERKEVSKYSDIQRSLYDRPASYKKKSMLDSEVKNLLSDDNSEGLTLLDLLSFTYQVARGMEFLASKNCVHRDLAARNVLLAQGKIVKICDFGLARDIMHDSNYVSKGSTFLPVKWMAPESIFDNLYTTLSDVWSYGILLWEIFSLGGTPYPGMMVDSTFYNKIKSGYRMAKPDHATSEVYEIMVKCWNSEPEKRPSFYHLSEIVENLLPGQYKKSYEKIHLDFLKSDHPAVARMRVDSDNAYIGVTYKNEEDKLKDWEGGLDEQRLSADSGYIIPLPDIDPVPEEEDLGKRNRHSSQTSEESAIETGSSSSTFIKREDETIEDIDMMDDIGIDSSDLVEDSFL

IC50 [1] | IC50 [2] | inhibition at 1 µM [4] | SMILES | IC50 ([3]; Homo sapiens, 120 h) | IC50 [3] | IC50 ([3]; hydrochloride)
≤ 500 nM | ≤ 5 nM | ≥ 90% | O=C(Nc1cccc(C(F)(F)F)c1)Nc1ccc(Oc2ncnc3ccn(CCOCCO)c23)cc1Cl [Example 14, N-[2-chloro-4-({5-[2-(2-hydroxyethoxy)ethyl]-5H-pyrrolo[3,2-d]pyrimidin-4-yl}oxy)phenyl]-N′-[3-(trifluoromethyl)phenyl]urea] | 33 nM |  | 
 |  |  | Cn1ccc2ncnc(Oc3ccc(NC(=O)Nc4cccc(C(F)(F)F)c4)c(F)c3)c21 [Example 29, N-{2-fluoro-4-[(5-methyl-5H-pyrrolo[3,2-d]pyrimidin-4-yl)oxy]phenyl}-N′-[3-(trifluoromethyl)phenyl]urea] |  | 4.4 nM | 
 |  | ≥ 90% | Cn1ccc2ncnc(Oc3ccc(NC(=O)Nc4cc(C(F)(F)F)ccn4)c(Cl)c3)c21 [Example 30, N-{2-chloro-4-[(5-methyl-5H-pyrrolo[3,2-d]pyrimidin-4-yl)oxy]phenyl}-N′-[4-(trifluoromethyl)pyridin-2-yl]urea] |  | 2.7 nM | 
 |  |  | O=C(Nc1cccc(C(F)(F)F)c1)Nc1ccc(Oc2ncnc3cc[nH]c23)cc1Cl [Example 39, N-[2-chloro-4-(5H-pyrrolo[3,2-d]pyrimidin-4-yloxy)phenyl]-N′-[3-(trifluoromethyl)phenyl]urea] | 4.8 nM |  | 
 | ≤ 5 nM | ≥ 90% | Cn1ccc2ncnc(Oc3ccc(NC(=O)Nc4cc(C(F)(F)F)ccc4F)c(Cl)c3)c21 [Example 40, N-{2-chloro-4-[(5-methyl-5H-pyrrolo[3,2-d]pyrimidin-4-yl)oxy]phenyl}-N′-[2-fluoro-5-(trifluoromethyl)phenyl]urea] | 11 nM |  | 
 | ≤ 5 nM |  | Cn1ccc2ncnc(Oc3ccc(NC(=O)Nc4cc(C(F)(F)F)ccn4)c(Cl)c3)c21 [Example 60, N-{2-chloro-4-[(5-methyl-5H-pyrrolo[3,2-d]pyrimidin-4-yl)oxy]phenyl}-N′-[4-(trifluoromethyl)pyridin-2-yl]urea Methanesulfonic Acid Salt] |  | 6.5 nM | 
≤ 500 nM | ≤ 5 nM | ≥ 90% | O=C(Nc1cccc(C(F)(F)F)c1)Nc1ccc(Oc2ncnc3cc[nH]c23)cc1Cl [Example 116, N-[2-chloro-4-(5H-pyrrolo[3,2-d]pyrimidin-4-yloxy)phenyl]-N′-[3-(trifluoromethyl)phenyl]urea p-toluenesulfonic Acid Salt] |  | 3.4 nM | 
 |  |  | Cc1cc2ncnc(Oc3ccc(NC(=O)Nc4cccc(C(F)(F)F)c4)c(Cl)c3)c2n1C [Example 124, N-{2-chloro-4-[(5,6-dimethyl-5H-pyrrolo[3,2-d]pytimidin-4-yl)oxy]phenyl}-N′-[3-(trifluoromethyl)phenyl]urea] |  | 13 nM | 
 |  |  | Cc1cc2ncnc(Oc3ccc(NC(=O)Nc4cccc(C(F)(F)F)c4)c(Cl)c3)c2n1C [Example 134, N-{2-chloro-4-[(5,6-dimethyl-5H-pyrrolo[3,2-d]pyrimidin-4-yl)oxy]phenyl}-N′-[3-(trifluoromethyl)phenyl]urea hydrochloride] |  |  | 5.4 nM
 | ≤ 5 nM | ≥ 90% | Cn1ccc2ncnc(Oc3ccc(NC(=O)Nc4cccc(C(F)(F)F)c4)c(F)c3)c21 [Example 137, N-{2-fluoro-4-[(5-methyl-5H-pyrrolo[3,2-d]pyrimidin-4-yl)oxy]phenyl}-N′-[3-(trifluoromethyl)phenyl]urea Hydrochloride] | 3.6 nM |  | 
